Drawing on patent US20240101576A1, “HETEROCYCLIC INHIBITORS OF EGFR AND/OR HER2, FOR USE IN THE TREATMENT OF CANCER” (Scorpion Therapeutics, Inc., priority 2020, published 2024), this text covers IC50 for 15 compounds.

Structures are written as SMILES.

As usually defined, the IC50 is the point on the concentration scale where inhibition reaches its midpoint.

What all share (type): cell-based
In test [1] the target is T1, EGFR WT (Ba/F3 cells) (Homo sapiens, UniProt P00533).
T1 construct: expressed in transfected cells; host or cells: Ba/F3 (murine pro-B cells), retroviral transduction, puromycin selection, maintained with EGF
T1 sequence (P00533 25-1210): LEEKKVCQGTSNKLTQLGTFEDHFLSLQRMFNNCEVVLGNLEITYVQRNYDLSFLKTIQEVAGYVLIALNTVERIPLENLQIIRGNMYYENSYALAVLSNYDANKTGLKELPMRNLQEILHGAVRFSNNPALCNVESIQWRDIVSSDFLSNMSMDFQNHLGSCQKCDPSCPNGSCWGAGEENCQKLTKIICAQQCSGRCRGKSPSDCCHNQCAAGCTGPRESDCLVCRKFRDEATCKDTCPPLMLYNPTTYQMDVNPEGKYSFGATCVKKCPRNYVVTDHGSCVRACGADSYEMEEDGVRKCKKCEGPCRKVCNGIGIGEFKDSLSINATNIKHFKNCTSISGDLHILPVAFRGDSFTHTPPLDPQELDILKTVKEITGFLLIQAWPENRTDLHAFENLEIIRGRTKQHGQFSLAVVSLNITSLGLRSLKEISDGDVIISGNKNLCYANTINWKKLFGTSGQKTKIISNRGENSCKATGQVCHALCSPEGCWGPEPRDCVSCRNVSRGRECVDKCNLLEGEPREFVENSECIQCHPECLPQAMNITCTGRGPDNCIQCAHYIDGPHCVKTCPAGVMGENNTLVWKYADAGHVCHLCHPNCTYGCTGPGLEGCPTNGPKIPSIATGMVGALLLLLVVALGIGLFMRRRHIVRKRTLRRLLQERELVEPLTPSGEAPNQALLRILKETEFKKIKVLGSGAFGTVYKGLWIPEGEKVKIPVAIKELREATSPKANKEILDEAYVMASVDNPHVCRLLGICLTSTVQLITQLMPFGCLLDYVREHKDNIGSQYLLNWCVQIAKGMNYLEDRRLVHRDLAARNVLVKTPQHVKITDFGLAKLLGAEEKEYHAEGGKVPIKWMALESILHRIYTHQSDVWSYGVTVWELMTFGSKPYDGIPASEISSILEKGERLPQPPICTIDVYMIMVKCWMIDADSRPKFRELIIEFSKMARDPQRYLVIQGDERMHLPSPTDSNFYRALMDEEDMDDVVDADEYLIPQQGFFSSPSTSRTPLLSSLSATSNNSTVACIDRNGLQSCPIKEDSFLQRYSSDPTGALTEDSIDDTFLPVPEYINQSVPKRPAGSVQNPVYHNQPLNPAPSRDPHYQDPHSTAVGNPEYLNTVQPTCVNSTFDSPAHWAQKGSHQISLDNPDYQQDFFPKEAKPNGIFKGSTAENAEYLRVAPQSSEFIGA
Briefly: Inhibitor activity on EGFR-dependent cell growth (CellTiter-Glo, 72 h), Ba/F3 EGFR WT. To be noted: read-out: BaF3 WT IC50. Put shortly: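 This growth assay used Ba/F3 cells that depend on wild-type EGFR and are kept in EGF without IL3. Compounds were made up as 10 mM DMSO stocks and diluted 3-fold over 10 points. 120 nL went onto 600 cells/well. After 72 hours, 40 μL CellTiter-Glo was added and luminescence read on EnVision after 30 min.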
A general note: Cellular ATP, detected with luciferase, serves as a proxy for viable cell number.

The target of test [2] is T2, EGFR exon 20 NPG Ins D770_N771 (Ba/F3 cells) (Homo sapiens, UniProt P00533, INS770NPG).
T2 construct: expressed in transfected cells; host or cells: Ba/F3 (murine pro-B cells), retroviral transduction, puromycin selection, IL3-independent pool
T2 sequence (P00533 with tags, fused parts or gaps INS770NPG): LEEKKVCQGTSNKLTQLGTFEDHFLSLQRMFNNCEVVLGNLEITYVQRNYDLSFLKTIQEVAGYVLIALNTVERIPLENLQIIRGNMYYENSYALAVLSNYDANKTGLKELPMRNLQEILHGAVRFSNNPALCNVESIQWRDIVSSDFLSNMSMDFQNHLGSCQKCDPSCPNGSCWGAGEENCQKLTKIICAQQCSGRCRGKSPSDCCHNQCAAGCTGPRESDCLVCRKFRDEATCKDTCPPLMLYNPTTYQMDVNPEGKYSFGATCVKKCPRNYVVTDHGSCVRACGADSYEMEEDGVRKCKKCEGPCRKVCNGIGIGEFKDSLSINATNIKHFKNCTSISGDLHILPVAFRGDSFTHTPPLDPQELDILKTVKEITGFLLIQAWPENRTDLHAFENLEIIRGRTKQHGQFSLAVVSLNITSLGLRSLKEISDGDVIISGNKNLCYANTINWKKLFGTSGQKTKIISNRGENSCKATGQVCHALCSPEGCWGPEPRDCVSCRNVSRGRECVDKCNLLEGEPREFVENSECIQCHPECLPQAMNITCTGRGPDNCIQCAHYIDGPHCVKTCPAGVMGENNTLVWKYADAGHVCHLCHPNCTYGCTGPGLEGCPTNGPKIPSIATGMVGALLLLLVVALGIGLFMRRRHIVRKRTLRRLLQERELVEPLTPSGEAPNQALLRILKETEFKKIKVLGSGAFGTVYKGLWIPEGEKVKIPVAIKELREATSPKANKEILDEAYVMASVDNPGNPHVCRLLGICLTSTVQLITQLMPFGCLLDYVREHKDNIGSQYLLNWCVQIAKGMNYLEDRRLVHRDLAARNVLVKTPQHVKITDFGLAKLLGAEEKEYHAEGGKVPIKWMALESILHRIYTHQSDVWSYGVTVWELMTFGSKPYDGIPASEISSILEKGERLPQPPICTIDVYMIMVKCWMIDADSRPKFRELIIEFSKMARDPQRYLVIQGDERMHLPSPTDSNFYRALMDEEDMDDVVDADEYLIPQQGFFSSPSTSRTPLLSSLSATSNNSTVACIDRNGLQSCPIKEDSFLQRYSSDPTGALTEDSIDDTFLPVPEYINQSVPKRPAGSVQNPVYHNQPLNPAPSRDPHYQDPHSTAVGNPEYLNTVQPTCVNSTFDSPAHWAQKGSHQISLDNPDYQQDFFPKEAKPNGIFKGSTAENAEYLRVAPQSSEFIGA
As to the kind of experiment: Inhibitor activity on EGFR-dependent cell growth (CellTiter-Glo, 72 h), Ba/F3 EGFR exon 20 NPG Ins. To be noted: read-out: BaF3 NPG IC50. The essentials: (§1)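 IC50s derive from a sigmoidal dose–response fit of CellTiter-Glo signal. The signal was normalised between […]-treated cells and cell-free medium. Ba/F3 mutant-EGFR cells, seeded at 400–800/well depending on the line, had 72 h of exposure to a 10-point, 3-fold compound series.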

The target of test [3] is T3, EGFR exon 20 ASV Ins V769_D770 (Ba/F3 cells) (Homo sapiens, UniProt P00533, INS769ASV).
T3 construct: expressed in transfected cells; host or cells: Ba/F3 (murine pro-B cells), retroviral transduction, puromycin selection, IL3-independent pool
T3 sequence (P00533 with tags, fused parts or gaps INS769ASV): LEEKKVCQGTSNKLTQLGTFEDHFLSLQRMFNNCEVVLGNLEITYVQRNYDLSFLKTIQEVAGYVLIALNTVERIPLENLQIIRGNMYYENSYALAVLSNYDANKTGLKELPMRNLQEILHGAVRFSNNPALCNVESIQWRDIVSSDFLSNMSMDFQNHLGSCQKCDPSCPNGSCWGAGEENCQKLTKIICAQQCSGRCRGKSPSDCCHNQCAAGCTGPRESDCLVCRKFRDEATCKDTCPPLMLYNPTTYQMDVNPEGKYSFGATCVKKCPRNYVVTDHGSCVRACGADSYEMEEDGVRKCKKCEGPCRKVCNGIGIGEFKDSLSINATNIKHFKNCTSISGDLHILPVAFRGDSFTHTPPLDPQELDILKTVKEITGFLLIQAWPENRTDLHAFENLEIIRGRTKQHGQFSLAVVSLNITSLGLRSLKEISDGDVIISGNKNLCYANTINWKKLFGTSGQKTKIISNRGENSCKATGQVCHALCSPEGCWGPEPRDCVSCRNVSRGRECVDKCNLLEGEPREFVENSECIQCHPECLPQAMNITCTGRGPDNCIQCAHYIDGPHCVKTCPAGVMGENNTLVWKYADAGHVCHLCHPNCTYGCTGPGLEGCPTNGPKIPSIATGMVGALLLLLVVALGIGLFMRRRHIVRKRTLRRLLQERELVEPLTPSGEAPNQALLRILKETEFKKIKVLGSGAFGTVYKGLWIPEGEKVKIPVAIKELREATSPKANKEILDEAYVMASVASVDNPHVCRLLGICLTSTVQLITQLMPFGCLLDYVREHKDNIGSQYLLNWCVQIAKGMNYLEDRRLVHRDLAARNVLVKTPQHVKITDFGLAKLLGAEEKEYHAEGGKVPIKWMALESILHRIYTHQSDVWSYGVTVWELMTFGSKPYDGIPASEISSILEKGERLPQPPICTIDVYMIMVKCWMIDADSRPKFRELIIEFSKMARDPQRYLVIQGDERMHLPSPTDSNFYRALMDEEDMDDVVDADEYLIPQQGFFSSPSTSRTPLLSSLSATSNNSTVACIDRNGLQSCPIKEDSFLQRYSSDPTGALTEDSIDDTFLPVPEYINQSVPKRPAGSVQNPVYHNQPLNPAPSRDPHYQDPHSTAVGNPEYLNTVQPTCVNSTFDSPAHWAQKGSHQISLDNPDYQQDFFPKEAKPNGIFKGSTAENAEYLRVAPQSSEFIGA
As to the kind of experiment: Inhibitor activity on EGFR phosphorylation (pEGFR AlphaLISA, 2 h), Ba/F3 EGFR exon 20 ASV Ins. To be noted: EGFR phosphorylation, AlphaLISA, 2 hours; read-out: ASV IC50 (pEGFR). The essentials:
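Ba/F3 cells made IL3-independent by retroviral EGFR mutant expression (puromycin-selected, pooled) and CUTO14 cells were seeded at 50K or 12.5K cells/well, respectively. They were treated 2 h with a 3-fold, 10-point compound series, lysed, and phospho-EGFR was read by AlphaLISA to give IC50.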

The target of test [4] is T2, EGFR exon 20 NPG Ins D770_N771 (Ba/F3 cells). As to the kind of experiment: Inhibitor activity on EGFR phosphorylation (pEGFR AlphaLISA, 2 h), Ba/F3 EGFR exon 20 NPG Ins. The text has this: Example B. Inhibitor Activity on EGFR phosphorylation (pEGFR)
EGFR mutant Ba/F3 cells were generated by transduction with retrovirus containing vectors expressing EGFR L858R, EGFR exon 19del, EGFR L858R/C797S, EGFR exon 20 NPG Ins D770_N771, EGFR exon 20 ASV Ins V769_D770, or EGFR exon 20 SVD Ins D770_N771 genes along with a puromycin selection marker. Transduced cells are selected with puromycin for 7 days and are then be transferred into culture media without Interleukin 3 (IL3). Surviving cells are confirmed to express EGFR by Western blot and maintained as a pool. CUTO14 cells were obtained from Dr. Robert C. Doebele at the University of Colorado. The IC50 date are included in Table 6 and Table 7.
1.1 Cells are harvested from flask into cell culture medium and the cell number counted.
1.2 Cells are diluted with culture medium to the desired density and 40 μL of cell suspension is added into each well of 384-well cell culture plate and the seeding density is 50K cells/well (Ba/F3) or 12.5K cells/well (CUTO14).
2 Compound Preparation and Treatment
2.1 Test compounds are dissolved to 10 mM in a DMSO stock solution. 45 μL of stock solution is transferred to a 384 polypropylene plate (pp-plate). Perform 3-fold, 10-point dilution via transferring 15 μL compound into 30 μL DMSO using a TECAN (EVO200) liquid handler.
2.2 Spin plates at room temperature at 1,000 RPM for 1 minute.
2.3 Transfer 5 nL of diluted compound from compound source plate into the cell plate.
2.4 After compound treatment for 2 hours, perform pEGFR detection by AlphaLISA for compound treatment plates as described in “Detection” section.
3 Detection by pEGFR AlphaLISA (Perkin-Elmer)
3.1 Plates are removed from incubators and equilibrated at room temperature for 10 minutes, and media was removed
3.2 10 μL of lysis buffer is added and plates shaken at 600 rpm for 1 hr.
3.3 Prepare acceptor mix just before use and dispense 5 μL of acceptor mix to all the wells. Shake 350 rpm for Ihr in the dark
3.4 Prepare donor mix under low light conditions prior to use. Dispense 5 μL of donor mix to all the wells. Mix well on the shaker, seal and wrap in aluminum foil and incubate 1.5 hrs at room temperature in the dark
3.5 Transfer 18.5 μL mixture to OptiPlate 384, and read using an Envision. The IC50 date were included in Table 6 and Table 7.

Test [5] addresses T4, EGFR exon 20 FQEA Ins A763_V764 (Ba/F3 cells) (Homo sapiens, UniProt P00533, INS763FQEA).
T4 construct: expressed in transfected cells; host or cells: Ba/F3 (murine pro-B cells), retroviral transduction, puromycin selection, IL3-independent pool
As to the kind of experiment: Inhibitor activity on EGFR-dependent cell growth (CellTiter-Glo, 72 h), Ba/F3 EGFR exon 20 FQEA Ins. To be noted: read-out: BaF3 FQEA IC50. Put shortly:
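Steps: seed Ba/F3 EGFR-mutant pools (800 cells/well FQEA and exon 19del; 600 L858R/C797S; 400 L858R). Add 120 nL of serially diluted compound and incubate 72 h. Equilibrate to room temperature, add CellTiter-Glo and read after 30 min. Fit IC50.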

Test [6] concerns the target T5, EGFR exon 20 SVD Ins D770_N771 (Ba/F3 cells) (Homo sapiens, UniProt P00533, INS770SVD).
T5 construct: expressed in transfected cells; host or cells: Ba/F3 (murine pro-B cells), retroviral transduction, puromycin selection, IL3-independent pool
Briefly: Inhibitor activity on EGFR-dependent cell growth (CellTiter-Glo, 72 h), Ba/F3 EGFR exon 20 SVD Ins. To be noted: read-out: BaF3 SVD IC50. Put shortly: as §1

Test [7] addresses T3, EGFR exon 20 ASV Ins V769_D770 (Ba/F3 cells). As to the kind of experiment: Inhibitor activity on EGFR-dependent cell growth (CellTiter-Glo, 72 h), Ba/F3 EGFR exon 20 ASV Ins. To be noted: read-out: BaF3 ASV IC50. The essentials:
as §1

T4 sequence (P00533 with tags, fused parts or gaps INS763FQEA): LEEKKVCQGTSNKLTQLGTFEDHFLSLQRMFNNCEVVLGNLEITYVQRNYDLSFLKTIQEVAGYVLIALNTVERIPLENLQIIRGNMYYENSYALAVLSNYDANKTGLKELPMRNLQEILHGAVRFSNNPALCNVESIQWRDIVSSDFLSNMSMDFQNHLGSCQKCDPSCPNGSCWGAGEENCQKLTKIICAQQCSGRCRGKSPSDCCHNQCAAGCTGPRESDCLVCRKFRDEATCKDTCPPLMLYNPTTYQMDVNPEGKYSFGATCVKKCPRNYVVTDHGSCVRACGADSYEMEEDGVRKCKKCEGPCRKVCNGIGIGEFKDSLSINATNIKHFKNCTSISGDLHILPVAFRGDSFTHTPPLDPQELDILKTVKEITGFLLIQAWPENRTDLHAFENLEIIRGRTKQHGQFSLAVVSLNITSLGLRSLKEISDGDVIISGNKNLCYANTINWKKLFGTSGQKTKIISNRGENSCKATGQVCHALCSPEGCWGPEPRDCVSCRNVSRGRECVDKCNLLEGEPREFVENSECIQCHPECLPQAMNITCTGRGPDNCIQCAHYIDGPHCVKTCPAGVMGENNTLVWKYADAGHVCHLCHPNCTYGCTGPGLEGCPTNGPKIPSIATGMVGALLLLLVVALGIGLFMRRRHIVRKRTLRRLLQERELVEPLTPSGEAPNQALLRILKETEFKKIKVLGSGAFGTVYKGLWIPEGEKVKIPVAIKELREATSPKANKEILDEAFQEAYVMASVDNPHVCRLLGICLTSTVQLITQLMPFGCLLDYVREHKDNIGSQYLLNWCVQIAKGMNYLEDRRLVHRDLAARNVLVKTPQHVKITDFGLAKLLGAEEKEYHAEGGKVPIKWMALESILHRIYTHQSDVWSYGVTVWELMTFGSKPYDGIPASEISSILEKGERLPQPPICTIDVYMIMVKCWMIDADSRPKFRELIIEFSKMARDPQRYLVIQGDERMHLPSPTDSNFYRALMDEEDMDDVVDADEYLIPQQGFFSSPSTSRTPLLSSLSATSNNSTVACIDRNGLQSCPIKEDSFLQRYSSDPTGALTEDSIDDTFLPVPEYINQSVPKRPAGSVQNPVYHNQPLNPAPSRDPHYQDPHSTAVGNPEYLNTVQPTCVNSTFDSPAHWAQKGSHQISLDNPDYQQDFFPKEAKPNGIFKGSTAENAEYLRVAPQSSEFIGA

`CNc1ccc2nccc(-c3[nH]c4c(c3Nc3cccc(Cl)c3OC)C(=O)NCC4)c2n1` [Compound 152, 3-((3-chloro-2-methoxyphenyl)amino)-2-(6-(methylamino)-1,5-naphthyridin-4-yl)-1,5,6,7-tetrahydro-4H-pyrrolo[3,2-c]pyridin-4-one]: the IC50 in test [1], in test [2], in test [3] and in test [4] was < 100 nM in each case.
Take `COc1c(F)cccc1Nc1c(-c2ncnc3cccnc23)[nH]c2c1C(=O)NCC2` [Compound 154, 3-((3-fluoro-2-methoxyphenyl)amino)-2-(pyrido[3,2-d]pyrimidin-4-yl)-1,5,6,7-tetrahydro-4H-pyrrolo[3,2-c]pyridin-4-one]: the IC50 was < 100 nM in test [1], > 1000 nM in test [2], > 1000 nM in test [3] and 100 to 1000 nM in test [4].
For `COCCNc1ccc2nccc(-c3[nH]c4c(c3Nc3cccc(Cl)c3OC)C(=O)NCC4)c2n1` [Compound 680, 3-[(3-chloro-2-methoxyphenyl)amino]-2-[6-[(2-methoxyethyl)amino]-1,5-naphthyridin-4-yl]-1H,5H,6H,7H-pyrrolo[3,2-c]pyridin-4-one; formic acid], the IC50 in test [1], in test [5], in test [2], in test [3], in test [4] and in test [6] was < 100 nM each time. Further, in test [7], the IC50 was < 100 nM.
For the compound `COc1c(F)cccc1Nc1c(-c2ccnc(N)c2F)[nH]c2c1C(=O)NCC2` [Compound 687, 2-(2-amino-3-fluoropyridin-4-yl)-3-[(3-fluoro-2-methoxyphenyl)amino]-1H,5H,6H,7H-pyrrolo[3,2-c]pyridin-4-one], the IC50 in test [1] is > 1000 nM; in test [5], 100 to 1000 nM; in test [2], 100 to 1000 nM; in test [3] it was 100 to 1000 nM; in test [4] it was < 100 nM; in test [6], 100 to 1000 nM. For the same compound, the IC50 in test [7] was 100 to 1000 nM.
For `CNc1nccc(-c2[nH]c3c(c2Nc2cccc(F)c2C)C(=O)NCC3)n1` [Compound 690, 3-[(3-fluoro-2-methylphenyl)amino]-2-[2-(methylamino)pyrimidin-4-yl]-1H,5H,6H,7H-pyrrolo[3,2-c]pyridin-4-one], the IC50 was < 100 nM in test [1], 100 to 1000 nM in test [2], < 100 nM in test [3] and < 100 nM in test [4].
As for `COc1c(Cl)cccc1Nc1c(-c2ccnc(C)n2)[nH]c2c1C(=O)NCC2` [compound 206], the IC50 was 100 to 1000 nM in test [1], 100 to 1000 nM in test [2], 100 to 1000 nM in test [3] and < 100 nM in test [4].
Turning to `Cc1c(F)cccc1Nc1c(-c2ccnc(N)n2)[nH]c2c1C(=O)NCC2` [compound 282], the IC50 was 100 to 1000 nM in test [1], 100 to 1000 nM in test [2], < 100 nM in test [3] and < 100 nM in test [4].
As to `Nc1nccc(-c2[nH]c3c(c2Nc2ccccc2)C(=O)NCC3)n1` [compound 283], the IC50 in test [1] is 100 to 1000 nM; in test [5], < 100 nM; in test [2], 100 to 1000 nM; in test [3], 100 to 1000 nM; in test [4], < 100 nM.
`COc1c(Cl)cccc1Nc1c(-c2ccnc3cnc(OC4COC4)nc23)[nH]c2c1C(=O)NCC2` [compound 441]: the IC50 in test [1] is 100 to 1000 nM; in test [5], < 100 nM; in test [2], < 100 nM; in test [4], < 100 nM; in test [6], < 100 nM; in test [7], < 100 nM.
For the compound `COc1c(F)cccc1Nc1c(-c2ccnc3cccnc23)[nH]c2c1C(=O)NCC2` [compound 442], the IC50 in test [1] is 100 to 1000 nM; in test [5], < 100 nM; in test [2], < 100 nM; in test [4], < 100 nM; in test [6], < 100 nM; in test [7] it was < 100 nM.
Regarding `COc1c(Cl)cccc1Nc1c(-c2ccnc3cnc(OCCN(C)C)nc23)[nH]c2c1C(=O)NCC2` [compound 502, 3-[(3-chloro-2-methoxyphenyl)amino]-2-{2-[2-(dimethylamino)ethoxy]pyrido[3,2-d]pyrimidin-8-yl}-1H,5H,6H,7H-pyrrolo[3,2-c]pyridin-4-one], the IC50 in test [1] was > 1000 nM; in test [5], 100 to 1000 nM; in test [2], 100 to 1000 nM; in test [4], < 100 nM; in test [6], 100 to 1000 nM; in test [7], 100 to 1000 nM.
For the compound `COc1c(Cl)cccc1Nc1c(-c2ccnc(Nc3cn(C)nn3)n2)[nH]c2c1C(=O)NCC2` [compound 511, 3-[(3-chloro-2-methoxyphenyl)amino]-2-{2-[(1-methyl-1,2,3-triazol-4-yl)amino]pyrimidin-4-yl}-1H,5H,6H,7H-pyrrolo[3,2-c]pyridin-4-one], the IC50 in test [1] is 100 to 1000 nM; in test [5], < 100 nM; in test [2] it was < 100 nM; in test [4], < 100 nM; in test [6], < 100 nM; in test [7] it was < 100 nM.
With `COc1ccc2nccc(-c3[nH]c4c(c3Nc3cccc(F)c3OC)C(=O)NCC43CCNCC3)c2n1` [compound 685], the IC50 is 100 to 1000 nM in test [1], 100 to 1000 nM in test [2], < 100 nM in test [3] and < 100 nM in test [4].
For `COc1cc2nccc(-c3[nH]c4c(c3Nc3cccc(Cl)c3OC)C(=O)NCC4)c2nc1OC` [compound 730, 3-[(3-chloro-2-methoxyphenyl)amino]-2-(6,7-dimethoxy-1,5-naphthyridin-4-yl)-1H,5H,6H,7H-pyrrolo[3,2-c]pyridin-4-one], the IC50 in test [1], in test [5], in test [2], in test [4], in test [6] and in test [7] was < 100 nM in each case.
Take `COc1c(Cl)cccc1Nc1c(-c2ccnc3ccc(OCC4CC(F)(F)C4)nc23)[nH]c2c1C(=O)NCC2` [compound 757, 3-[(3-chloro-2-methoxyphenyl)amino]-2-[6-[(3,3-difluorocyclobutyl)methoxy]-1,5-naphthyridin-4-yl]-1H,5H,6H,7H-pyrrolo[3,2-c]pyridin-4-one]: the IC50 is 100 to 1000 nM in test [1]; < 100 nM in test [5]; 100 to 1000 nM in test [2]; < 100 nM in test [4]; < 100 nM in test [6]; < 100 nM in test [7].
